Measured values reported in US10092510B2, “Veterinary method for inducing emesis” (Orion Corporation, priority 2013, dated 2018).
Several values for one entry are separate records, joined by “and”; a condition that tells them apart may be missing. Identical values can stand only once. Counter-ions that a name gives are not always drawn. Like-named read-outs stand apart in the source and are kept apart here.

System: dogs
[1] = average of 6 dogs, pH 10, conc. 5 mg/ml, dose 30 μg/kg, both eyes
[2] = individual dogs 1-6, pH 10, conc. 5 mg/ml, dose 30 μg/kg, both eyes
[3] = average of 6 dogs, pH 4, conc. 10 mg/ml, dose 50 μg/kg, both eyes, fasted
[4] = average of 6 dogs, pH 4, conc. 40 mg/ml, dose 100 μg/kg, right eye, fed
[5] = individual dogs 1-6, pH 4, conc. 10 mg/ml, dose 50 μg/kg, both eyes, fasted, hydrochloride
[6] = individual dogs 1-6, pH 4, conc. 40 mg/ml, dose 100 μg/kg, right eye, fed, hydrochloride

Protocol: Aqueous eye drop solution comprising ropinirole hydrochloride (10 mg/ml or 40 mg/ml, pH 4) was administered into the eyes of six test dogs with doses of 50 μg/kg and 100 μg/kg for induction of emesis.

For `CCCN[C@H]1CCc2nc(N)sc2C1` [Pramipexole], the Number of vomits [1] was 3.3, the “Onset of the first vomit (average induction time for emesis)” value [1] was 4.5 min and the “The last vomit (vomiting ended on the average)” value [1] was 31.3 min. The “Prolonged emesis or irritation” value (eye drop solution 5 mg/ml, pH 10, dose 30 μg/kg, six dogs) was “No prolonged emesis or significant irritation”, the Number of vomits [2] was 6 (2×) and 1 (2×) and 3 (2×) and the “Onset of the first vomit” value [2] was 2 min and 3 min (3×) and 4 min and 12 min. For the same molecule, the The last vomit [2] was 62 min (2×) and 3 min and 27 min and 22 min and 12 min.
`CCCN(CCC)CCc1cccc2c1CC(=O)N2` [Ropinirole HCl, Ropinirole hydrochloride] was tested, and the Number of vomits [3] was 3.5, the “Onset of the first vomit (average induction time for emesis)” value [3] was 6.7 min and the “The last vomit (vomiting ended on the average)” value [3] was 20.5 min. For the same molecule, the Number of vomits [4] was 2.3, the “Onset of the first vomit (average induction time for emesis)” value [4] was 4.8 min and the “The last vomit (vomiting ended on the average)” value [4] was 12.3 min. For the same molecule, the “Time at which vomiting ends, from the administration” value (eye drop composition, general statement (typically)) was at most 20 min, the “Onset of emesis and tolerability when administered to the eye of the animal” value (general statement of findings) was “consistent and rapid onset of emesis without producing unnecessarily prolonged emesis, ocular discomfort or significant local irritation” and the Number of vomits [5] was 3 (4×) and 2 and 7. For the same molecule, the “Onset of the first vomit” value [5] was 7 min and 6 min (3×) and 4 min and 11 min, the The last vomit [5] was 21 min and 20 min (2×) and 14 min and 12 min and 36 min and the Number of vomits [6] was 2 (3×) and 1 and 4 and 3. For the same molecule, the “Onset of the first vomit” value [6] was 6 min (2×) and 2 min and 7 min and 5 min and 3 min, the The last vomit [6] was 9 min and 10 min and 7 min and 15 min and 20 min (2×) and the “Dogs vomiting / dogs treated” value (pH 4, conc. 10 mg/ml, dose 50 μg/kg, both eyes, fasted) was “Average 6/6”. The “Dogs vomiting / dogs treated” value (pH 4, conc. 40 mg/ml, dose 100 μg/kg, right eye, fed) was “Average 6/6”.
